Assay [1] deals with E. coli CSH(RE45). Put plainly: microbe, parasite or virus in culture. The format is cell-based. The settings on record: Escherichia coli, 16 h, read-out: Minimum Inhibitory Concentration (MIC), *E. coli CSH(RE45), lactamase-producing strain; 10^6 CFU/ml. The essentials:
(§1)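 Overnight Mueller Hinton broth cultures were inoculated onto Mueller Hinton agar containing serial antibiotic concentrations at 10^6 CFU/ml. Plates were incubated at 37° C. for 16 hours, and MIC (μg/ml) was recorded.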

The subject of assay [2] is E. coli CSH2 (RK1). Put plainly: microbe, parasite or virus in culture. The assay is classed as cell-based. Conditions: Escherichia coli, 16 h, read-out: Minimum Inhibitory Concentration (MIC), *E. coli CSH2 (RK1), lactamase-producing strain; 10^6 CFU/ml. The essentials: as §1
For assay [3], the system named is A. calcoaceticus No. 4. Put plainly: in vitro antibacterial activity, agar plate dilution method (MIC). The assay is classed as cell-based, Acinetobacter calcoaceticus. Conditions: Acinetobacter calcoaceticus, NO.4, 16 h, A. calcoaceticus No. 4; 10^6 CFU/ml; read-out: Minimum Inhibitory Concentration (MIC). In short, it runs like this:
as §1

Assay [4] relates to Ps. aeruginosa AK 109. The assay is described as above. Conditions: Pseudomonas aeruginosa, AK109, 16 h, read-out: Minimum Inhibitory Concentration (MIC). The format is cell-based, Pseudomonas aeruginosa. The essentials:
as §1

The test system of assay [5] is Ps. aeruginosa AKR17. Described as above. The format is cell-based, Pseudomonas aeruginosa. The settings on record: Pseudomonas aeruginosa, AKR17, 16 h, read-out: Minimum Inhibitory Concentration (MIC), Ps. aeruginosa AKR17; 10^6 CFU/ml. The essentials: as §1
In assay [6] the test system is Ps. aeruginosa IF03445. Described as above. The assay is classed as cell-based, Pseudomonas aeruginosa. Conditions: Pseudomonas aeruginosa, IF03445, 16 h, read-out: Minimum Inhibitory Concentration (MIC), Ps. aeruginosa IF03445; 10^6 CFU/ml. In short, it runs like this: as §1
Assay [7] concerns K. pneumoniae PCI-602. The assay is described as above. The format is cell-based. Conditions: Klebsiella pneumoniae, PCI602, 16 h, 10^6 CFU/ml. In short, it runs like this: as §1
Assay [8] deals with E. cloacae 963. The description is as above. Conditions: 10^6 CFU/ml. The assay is classed as cell-based. The essentials: as §1
In assay [9] the test system is K. oxytoca GN10650. Described as above. Conditions: Klebsiella oxytoca, GN10650, 16 h, read-out: Minimum Inhibitory Concentration (MIC), *K. oxytoca GN10650, lactamase-producing strain; 10^6 CFU/ml. The format is cell-based. In short, it runs like this:
as §1

For assay [10], the system named is M. morganii GN5407. The description is as above. The format is cell-based. Conditions: Morganella morganii, GN5407, 16 h, read-out: Minimum Inhibitory Concentration (MIC), *M. morganii GN5407, lactamase-producing strain; 10^6 CFU/ml. The essentials: as §1
Assay [11] has as its system S. aureus 209P NIHJ-JC1. Described as above. The settings on record: Staphylococcus aureus, 16 h, read-out: Minimum Inhibitory Concentration (MIC). The format is cell-based. The essentials: as §1
Assay [12] has as its system E. coli NIHJ JC2. The assay is described as above. Conditions: Escherichia coli, NIHJJC2, 16 h, read-out: Minimum Inhibitory Concentration (MIC), E. coli NIHJ JC2, 10^6 CFU/ml, 37° C. The assay is classed as cell-based. In short, it runs like this:
as §1

For assay [13], the system named is P. vulgaris HX-19. Described as above. The settings on record: Proteus vulgaris, HX19, 16 h, read-out: Minimum Inhibitory Concentration (MIC). The assay is classed as cell-based. The essentials:
as §1

In assay [14] the test system is E. coli GN5482. The assay is described as above. The format is cell-based. The settings on record: Escherichia coli, GN5482, 16 h. The essentials:
as §1

The test system of assay [15] is K. pneumoniae No. 42. The assay is described as above. The format is cell-based. Conditions: Klebsiella pneumoniae, NO.42, 16 h, read-out: Minimum Inhibitory Concentration (MIC), *K. pneumoniae No. 42, lactamase-producing strain; 10^6 CFU/ml. In short, it runs like this: as §1
Assay [16] has as its system P. vulgaris No. 33. Described as above. The format is cell-based. The settings on record: Proteus vulgaris, NO.33, 16 h, read-out: Minimum Inhibitory Concentration (MIC), *P. vulgaris No. 33, lactamase-producing strain; 10^6 CFU/ml. In short, it runs like this: as §1
Assay [17] concerns E. cloacae Nek 39. The description is as above. The assay is classed as cell-based. Conditions: Enterobacter cloacae, NEK39, 16 h, read-out: Minimum Inhibitory Concentration (MIC), *E. cloacae Nek 39, lactamase-producing strain; 10^6 CFU/ml. The essentials: as §1
For assay [18], the system named is S. marcescens No. 16-2. The description is as above. The assay is classed as cell-based. Conditions: Serratia marcescens, NO.162, 16 h. In short, it runs like this: as §1
Assay [19] concerns S. marcescens IAM 1184. The description is as above. The assay is classed as cell-based. Conditions: Serratia marcescens, IAM1184, 16 h, S. marcescens IAM 1184; 10^6 CFU/ml; read-out: Minimum Inhibitory Concentration (MIC). In short, it runs like this:
as §1

Assay [20] has as its system Ps. cepacia 23. The assay is described as above. The assay is classed as cell-based, Pseudomonas cepacia. Conditions: Burkholderia cepacia, 16 h; Ps. cepacia 23; 10^6 CFU/ml; read-out: Minimum Inhibitory Concentration (MIC). The essentials: as §1
The test system of assay [21] is Enterobacter cloacae GN 5797. Put plainly: β-lactamase inducibility. The format is cell-based. The settings on record: antibiotic at 50, 10 and 1 μg/ml; cephaloridine as substrate. The method, then: The assay method for induction of β-lactamase by β-latam antibiotics was as follows:
The test organism, Enterobacter cloacae GN 5797, was grown overnight in Mueller Hinton broth (Dlfco Laboratories, Detroit, Mich.) at 37° C. The culture was diluted 10-fold into 20 ml of the flesh medium and incubated with shaking at 37° C. After 2 hours of incubation, antibiotics were added to final concentrations of 50 μg/ml, 10 μg/ml and 1 μg/ml, and the incubation was continued. At 1 hour intervals after the addition of antibiotic, 3 ml of sample was taken, and immediately added with 0.1 ml of 50 mM sodium azide. The cells were harvested and washed with 50 mM phosphate buffer (ph 7.0). The cells were suspended in 5 ml of 50 mM phosphate buffer and disrupted with a sonicater in an ice-water bath. The broken cells were centrifuged at 16,500 G for 40 minutes at 4° C., and the resulting supernatant fluid was used as the crude enzyme. β-Lactamase activity was determined by a sopectrophotometric method (Antmicrob. Agents Chemother. 17, 355-358, 1980) with cephaloridine as substrate. The concentration of protein was determined by the method of Lowry (J. Biol. Chem. 193, 265-275, 1951). […] As a representative example, the compound of EXAMPLE 50 was administered to mice by means of subcutaneous administration, and the concentration in the blood was measured.

Where [22] appears, read: Ps. aeruginosa AK 109, 10^6 CFU/ml.
Where [23] appears, read: read-out: Minimum Inhibitory Concentration (MIC), K. pneumoniae PCI-602.
Where [24] appears, read: read-out: Minimum Inhibitory Concentration (MIC).
The mark [25] stands for this setting: Enterobacter cloacae, 16 h, E. cloacae 963, read-out: Minimum Inhibitory Concentration (MIC).

Each structure is given as a SMILES string. In brackets after ≈: the same amount, converted by molar mass. Like-named read-outs stand apart in the source and are kept apart here.

As to `CC(C)(O/N=C(\C(=O)N[C@@H]1C(=O)N2C(C(=O)O)=C(CSc3nnc(-c4ccc(O)c(O)c4)o3)CS[C@H]12)c1csc(N)n1)C(=O)O` [Ex. 11, disodium 7β-[2-(2-aminothiazol-4-yl)-(1-carboxylate-1-methylethoxyimino)acetamido]-3-[5(3,4-dihydroxyphenyl)-1,3,4-oxadiazol-2-yl]thiomethyl-3-cephem-4-carboxylate], the MIC is 1.56 µg/mL in [1]; under 0.006 µg/mL in assay [2]; 0.05 µg/mL in assay [3]; 0.2 µg/mL in [4] (setting [22]); 1.56 µg/mL in assay [5]; 0.39 µg/mL in [6]. In addition, the MIC in assay [7] (setting [23]) is under 0.006 µg/mL; in [8] (Enterobacter cloacae, 963, 16 h, read-out: Minimum Inhibitory Concentration (MIC), E. cloacae 963), 0.025 µg/mL; in assay [9], 0.0125 µg/mL; in assay [10], 0.05 µg/mL; in [11] (S. aureus 209P NIHJ-JC1, 10^6 CFU/ml, 37° C., 16 hours), 25 µg/mL; in assay [12], 0.1 µg/mL. In addition, the MIC in assay [13] (P. vulgaris HX-19, 10^6 CFU/ml) was under 0.006 µg/mL; in assay [14] (setting [24]) it was 0.39 µg/mL; in assay [15], 0.025 µg/mL; in [16], 0.025 µg/mL; in [17], 0.05 µg/mL; in assay [18] (setting [24]), 0.39 µg/mL. Further, the values for the MIC in assay [19] and in [20] were 0.0125 µg/mL and under 0.006 µg/mL, respectively. For the same compound, the β-lactamase inducibility entry in assay [21] was “no substantial β-lactamase-inducing activity was observed”.

Turning to `CC(C)(O/N=C(\C(=O)N[C@@H]1C(=O)N2C(C(=O)O)=C(CSc3nnc(-c4ccc(O)c(O)c4)s3)CS[C@H]12)c1csc(N)n1)C(=O)O` [Ex. 34], the MIC in [1] is under 0.006 µg/mL; in [2], under 0.006 µg/mL; in assay [3] it was 0.05 µg/mL (≈ 0.0721 µM); in [4] (setting [22]), 0.1 µg/mL (≈ 0.144 µM); in [5] it was 1.56 µg/mL (≈ 2.25 µM); in [6], 0.39 µg/mL (≈ 0.562 µM). Also, the MIC in assay [7] (K. pneumoniae PCI-602, read-out: Minimum Inhibitory Concentration (MIC)) worked out at 0.0125 µg/mL (≈ 0.018 µM); in assay [8] (setting [25]), 0.1 µg/mL (≈ 0.144 µM); in assay [9] it was 0.025 µg/mL (≈ 0.036 µM); in assay [10], 0.05 µg/mL (≈ 0.0721 µM); in assay [11], 12.5 µg/mL (≈ 18 µM); in [12], 0.1 µg/mL (≈ 0.144 µM). Besides, the MIC in [13] (P. vulgaris HX-19, 10^6 CFU/ml) is under 0.006 µg/mL; in [14] (read-out: Minimum Inhibitory Concentration (MIC), *E. coli GN5482, lactamase-producing strain, 10^6 CFU/ml), 0.78 µg/mL (≈ 1.12 µM); in assay [15] it was 0.0125 µg/mL (≈ 0.018 µM); in assay [16], 0.025 µg/mL (≈ 0.036 µM); in assay [17], 0.1 µg/mL (≈ 0.144 µM); in assay [18] (setting [24]), 0.1 µg/mL (≈ 0.144 µM). Further, the values for the MIC in [19] and in assay [20] were 0.025 µg/mL (≈ 0.036 µM) and under 0.006 µg/mL, respectively. Besides, the β-lactamase inducibility result in assay [21] is listed as “no substantial β-lactamase-inducing activity was observed”.

Regarding `CC(C)(ON=C(C(=O)NC1C(=O)N2C(C(=O)O)=C(CSc3nc(-c4ccc(O)c(O)c4)cs3)CSC12)c1csc(N)n1)C(=O)O` (stereo not drawn) [Ex. 44, disodium 7β-[2-(2-aminothiazol-4-yl)-2-(1-carboxylate-1-methylethoxyimino)acetamido]-3-[4-(3,4-dihydroxyphenyl)thiazol-2-yl]thiomethyl-3-cephem-4-carboxylate], the MIC in assay [1] is 0.0125 µg/mL; in assay [2] it was 0.0125 µg/mL; in assay [3] it was 0.2 µg/mL; in assay [4], 0.39 µg/mL; in assay [5] it was 1.56 µg/mL; in assay [6] it was 0.39 µg/mL. In addition, the MIC was under 0.006 µg/mL in [7] (setting [23]); 0.1 µg/mL in [8] (setting [25]); 0.025 µg/mL in assay [9]; 0.05 µg/mL in assay [10]; 12.5 µg/mL in assay [11]; 0.2 µg/mL in [12]. The MIC in assay [13] amounted to 0.0125 µg/mL; in [14] (setting [24]) it was 0.39 µg/mL; in assay [15] it was 0.1 µg/mL; in assay [16], 0.025 µg/mL; in [17], 0.1 µg/mL; in [18] (read-out: Minimum Inhibitory Concentration (MIC), *S. marcescens No. 16-2, lactamase-producing strain, 10^6 CFU/ml), 1.56 µg/mL. Besides, the MIC in [19] was 0.05 µg/mL; in [20], under 0.006 µg/mL. For the same compound, in assay [21], the β-lactamase inducibility entry is on record as “no substantial β-lactamase-inducing activity was observed”.

Take `CC(C)(O/N=C(\C(=O)N[C@@H]1C(=O)N2C(C(=O)O)=C(CSc3nc4cc(O)c(O)cc4o3)CS[C@H]12)c1csc(N)n1)C(=O)O` [Example 76, disodium 7 β-[2-(2-aminothiazol-4-yl)-2-(1-carboxylate-1-methylethoxyimino)acetamido]-3-(5,6-dihydroxybenzoxazol-2-yl) thiomethyl-3-cephem-4-carboxylate]: the β-lactamase inducibility entry in [21] is given as “no substantial β-lactamase-inducing activity was observed”.

The values are drawn from patent US5061794A, “Cephalosporin derivatives, and antibacterial agents” (priority 1986, dated 1991).
